Non-standard residues stand in square brackets, D forms with d. Residues, ends and D or L forms follow the SMILES beside them. *: point of attachment. Trp(6-Cl) = N[C@@H](Cc1c[nH]c2cc(Cl)ccc12)C(=O)O; Pip = O=C(O)[C@@H]1CCCCN1; ClAc = O=C(CCl)*

Data set [1] concerns the target T1, human Pin1 (Homo sapiens, UniProt Q13526).
T1 construct: Residues 1–163 of human Pin1 were expressed with a thrombin cleavage site and a HisTag at the N-terminus; 6xHis (N); thrombin cleavage site (N); made in house; host or cells: E. coli
The experiment in a line: Denaturation thermal shift measurements (SYPRO Orange). To be noted: thermal denaturation shift of Pin1, 20 μM protein, protein:ligand 1:2, 50 mM phosphate pH 7.5, 150 mM NaCl, 3% DMSO, 10-95°C, quadruplicates. The data set is classed as binding. As to the method:
To assess the ability of our agents to bind and inhibit Pin1, we developed a robust biochemical assay based on the dissociation-enhanced lanthanide fluorescent immunoassay (DELFIA) platform. In our implementation, we used a biotinylated form of a known Pin1-binding peptide (D-peptide) to monitor the ability of test agents to inhibit the interaction between Pin1 and the D-peptide at various incubation times, as described previously.[32] […] In addition, as mentioned above and reported recently, we tested the ability of the agents to reduce Pin1 thermal stability in vitro by thermal denaturation measurements.[32] […] Pin1 unfolding causes a nonspecific interaction between the water-quenched fluorescent dye and the protein’s exposed hydrophobic residues, resulting in increased fluorescence. A shift in the thermal denaturation temperature between the free and bound protein is interpreted as a stabilization or destabilization event induced by the test ligand. […] To further assess whether these agents could be suitable for in vivo efficacy studies, we also performed stability assays in aqueous buffer and in plasma from various species (Table S2, Figure S2). We tested the stability of our agents in plasma from multiple mouse strains as well as in human plasma (Figure S2), given the peptide nature of the compounds. […]

The nature of data set [2]: Stability in aqueous buffer (1x PBS). The data set is classed as physicochemical. To be noted: 1x phosphate buffered saline, 1 μg/mL, 37°C, up to 6 h, acetonitrile quench, LC-MS/MS. Here is the method: (§1) A solution of a Pin1 inhibitor was spiked into blank plasma at 1 μg/mL in various solutions, including an aqueous buffer (1× phosphate-buffered saline; Fisher Scientific, Fair Lawn, NJ), human plasma (Innovative Research Inc., Novi, MI), wild-type mouse plasma (Innovative Research Inc., Novi, MI), plasma form esterase-deficient mice (City of Hope, Duarte, CA), and plasma from Black 6-Cg mice (City of Hope, Duarte, CA).
(§2) The spiked plasma samples were incubated at 37°C for up to 6 h. At each designated time point, a 20 μL aliquot of the incubation sample was removed and quenched in 100 μL of acetonitrile. At the end of the incubation, the quenched samples were vortexed and centrifuged for 10 min at 4°C and 20,000 × g. The resulting supernatant was reconstituted and analyzed by LC-MS/MS.
(§3) Table S2. Stability half-life of agents reported in Table 1 after incubation at 37 °C in various media. Acq represents aqueous buffer composed of 1x phosphate buffered saline (Fisher Scientific, Fair Lawn, NJ); human represents human plasma (Innovative Research Inc., Novi, MI); mouse wt represents wild type mouse plasma (Innovative Research Inc., Novi, MI); mouse ES1e represents plasma form esterase deficient mice (City of Hope, Duarte, CA); mouse B6-Cg represents plasma from black 6-Cg mice (City of Hope, Duarte, CA). See Figure 1 for the chemical structures of these compounds.
(§4) Compound Acq Human Mouse Mouse ES1e Mouse

A short description of data set [3]: Human plasma stability. Type of data set: in vitro ADME. The settings on record: 37°C, up to 6 h, acetonitrile quench, LC-MS/MS. Here is the method:
as §1, §2, §3, §4

In data set [4] the test system is MIA PaCa-2 cells. The data set is classed as cell-based, human. To be noted: 72 h. As to the method:
The effect of Pin1 degradation by 164B8 on cell viability was assessed using live-cell analysis (IncuCyte S3). […] Furthermore, to evaluate the acute single-dose toxicity of 164B8 in vivo, CD-1 immune-competent mice were exposed to increasing doses of 164B8. […] Therefore, a maximum tolerated dose was not reached (Figure S12).
Figure S11: Mia PaCa-2 and KPC cells were treated with different doses of 164B8, and the
IncuCyte S3 live-cell analysis system was used to monitor the agent’s activity every 3 hours for
(1 picture or pasted object on this page, not shown here)

The target of data set [5] is Pin1 in BxPC3 cells (Homo sapiens, UniProt Q13526). The experiment in a line: Pin1 degradation by western blot in BxPC3 cells. The data set is classed as cell-based. Further details: endogenous in cells; host or cells: BxPC3, MIA PaCa-2. To be noted: BxPC3, 0.5-15 μM for 24 h, Pin1 relative to β-actin. Here is the method: To ascertain that the plasma-stable agent 164B8 retained its ability to induce Pin1 degradation in cells, we tested it in three pancreatic cancer cell lines—human BxPC3 and MIA PaCa-2, and the mouse pancreatic cancer cell line KPC—using western blot analysis (Figure 2).
Pin1 in BxPC3 cells, sequence (Q13526 whole entry): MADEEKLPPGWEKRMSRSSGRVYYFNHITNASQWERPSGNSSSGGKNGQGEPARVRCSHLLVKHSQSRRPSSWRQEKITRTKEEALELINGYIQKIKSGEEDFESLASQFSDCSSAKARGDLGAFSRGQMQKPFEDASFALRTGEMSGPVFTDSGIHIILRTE
Figure 2 Degradation of Pin1 in different cell lines in response to 164B8 treatment BxPC3, MIA PaCa-2, and KPC were each treated with 0.1% DMSO and concentrations of 164B8 ranging between 0.5 and 15 μM for 24 h, and Pin1 levels were quantified with respect to β-actin using a specific anti-Pin1 antibody and western blotting (uncropped blots are reported in Figure S6).
At the end of the treatments, cells were lysed with a lysis buffer containing 20 mM Tris (pH 7.4), 1% Triton X-100, 5 mM EDTA, 0.1% sodium dodecyl sulfate (SDS), 1% IGEPAL, 0.5% sodium deoxycholate, 120 mM NaCl, and a protease inhibitor cocktail and PhosSTOP (Sigma-Aldrich). Lysates were then centrifuged at 16,000 × g for 20 min at 4°C, and the supernatants were collected. Protein concentrations were determined using the Pierce BCA Protein Assay Kit (Thermo Fisher Scientific) according to the manufacturer’s protocol. For traditional western blotting (Figure 2), samples were loaded onto precast Bis-Tris gels and subsequently transferred onto PVDF membranes. […]

T1 sequence (Q13526 whole entry, the tested form may be a part): as the sequence (Q13526 whole entry) above

As for `CNC(=O)[C@H](Cc1c[nH]c2ccccc12)NC(=O)[C@@H]1CCCCN1C(=O)[C@H](Cc1c[nH]c2cc(Cl)ccc12)NC(=O)CCl` [164B8] (ClAc-[Trp(6-Cl)]-[Pip]-Trp-NHMe), the “ΔTm (°C)” value in data set [1] is −9.55 ± 0.19 °C. For the same molecule, the “Stability half-life, Acq (aqueous buffer)” value in data set [2] was more than 5 h. The half-life (commonly the time needed for the level to fall by half in the phase considered) at 1 μg/mL in data set [3] is approximately 4.5 h. For the same molecule, a half-maximal response in data set [4] (EC50) required 8.4 µM. The “DC50 of Pin1 degradation” value in data set [5] is recorded as “sub-micromolar”.

The record behind these values is PMC12657321, “Pre-clinical evaluation of a potent and effective Pin1-degrading agent in pancreatic cancer” (Molecular Therapy Oncology, 2025).
